Patent US10596172B2 (Celgene CAR LLC, priority 2008, dated 2020)
Read-outs that look alike come from different tables or passages of the source.

Assays:
JAK3 = JAK3 (Homo sapiens (Human), UniProt P52333); assay: Omnia assay for potency assessment against the active form of JAK3; assay type: biochemical; conditions: read-out: JAK3 Inhibition
Protocol: Briefly, 10× stocks of EGFR-WT (PV3872) from Invitrogen and EGFR-T790M/L858R (40350) from BPS Bioscience, San Diego, Calif., 1.13×ATP (AS001A) and appropriate Tyr-Sox conjugated peptide substrates (KCZ1001) were prepared in 1× kinase reaction buffer consisting of 20 mM Tris, pH 7.5, 5 mM MgCl2, 1 mM EGTA, 5 mM β-glycerophosphate, 5% glycerol (10× stock, KB002A) and 0.2 mM DTT (DS001A).
The Omnia Assay Protocol for potency assessment against JAK3 was performed in a substantially similar manner as that described in Example 251 above except that the modified JAK3-optimized reagent conditions were:
[JAK3]=5 nM, [ATP]=5 μM, [Y12-Sox]=5 μM (ATP KMapp˜5 μM).

[1] = test system: B cell lymphoma cell lines; assay: B cell lymphoma proliferation assay; assay type: cell-based
[2] = Homo sapiens, DOHH-2, DOHH2 B cell lymphoma cell line, read-out: EC50 (μM) DOHH2
[3] = Homo sapiens, WSUDLCL2, WSU-DLCL2 B cell lymphoma cell line, read-out: EC50 (μM) WSU-DLCL2
[4] = DHL4 B cell lymphoma cell line, read-out: EC50 (μM) DHL4

Chain of JAK3 (P52333 whole entry): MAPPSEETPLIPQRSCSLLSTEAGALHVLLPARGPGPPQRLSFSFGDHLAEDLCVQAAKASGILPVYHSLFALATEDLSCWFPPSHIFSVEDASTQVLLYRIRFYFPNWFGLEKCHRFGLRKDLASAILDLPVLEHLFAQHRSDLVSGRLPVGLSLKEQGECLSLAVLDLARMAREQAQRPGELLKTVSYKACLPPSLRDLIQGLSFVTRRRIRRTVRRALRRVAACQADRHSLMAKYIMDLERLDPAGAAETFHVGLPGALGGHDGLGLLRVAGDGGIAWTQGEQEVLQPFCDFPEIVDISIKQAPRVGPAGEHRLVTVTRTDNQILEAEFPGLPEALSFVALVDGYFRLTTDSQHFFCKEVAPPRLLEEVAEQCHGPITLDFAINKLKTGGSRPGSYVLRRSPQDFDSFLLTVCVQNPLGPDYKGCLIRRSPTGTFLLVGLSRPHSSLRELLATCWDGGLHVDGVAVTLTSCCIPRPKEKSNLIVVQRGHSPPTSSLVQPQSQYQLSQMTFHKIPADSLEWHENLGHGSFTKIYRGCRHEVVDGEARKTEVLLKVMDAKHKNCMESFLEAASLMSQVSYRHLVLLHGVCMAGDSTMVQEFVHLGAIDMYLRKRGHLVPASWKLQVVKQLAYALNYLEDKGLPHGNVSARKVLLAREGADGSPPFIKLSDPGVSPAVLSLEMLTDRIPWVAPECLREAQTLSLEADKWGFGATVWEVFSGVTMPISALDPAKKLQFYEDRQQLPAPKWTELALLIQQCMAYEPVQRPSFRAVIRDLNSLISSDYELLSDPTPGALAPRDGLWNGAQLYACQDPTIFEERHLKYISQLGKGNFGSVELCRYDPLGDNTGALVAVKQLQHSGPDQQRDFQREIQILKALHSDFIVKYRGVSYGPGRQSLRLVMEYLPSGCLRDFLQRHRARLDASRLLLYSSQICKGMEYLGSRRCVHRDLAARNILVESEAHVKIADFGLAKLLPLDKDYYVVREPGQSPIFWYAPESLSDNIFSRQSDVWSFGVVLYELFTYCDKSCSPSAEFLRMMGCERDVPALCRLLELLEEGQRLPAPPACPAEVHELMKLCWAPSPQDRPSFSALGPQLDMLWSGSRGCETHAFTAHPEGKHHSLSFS

| Structure (SMILES) | IC50 (JAK3) [nM] | EC50 [1, 2] [µM] | EC50 [1, 3] [µM] | EC50 [1, 4] [µM] |
| --- | --- | --- | --- | --- |
| C=CC(=O)Nc1cccc(Nc2nccc(Nc3cccc(C)c3)n2)c1 [Compound I-1, N-(3-(4-(m-tolylamino)pyrimidin-2-ylamino)phenyl)acrylamide] | < 10 | – | – | – |
| C=CC(=O)Nc1cccc(Nc2ncc(F)c(Nc3cccc(C)c3)n2)c1 [Compound I-3, N-(3-(5-fluoro-4-(m-tolylamino)pyrimidin-2-ylamino)phenyl)acrylamide] | < 10 | 0.1 to 1 | – | – |
| C=CC(=O)Nc1cccc(Nc2ncc(C)c(Nc3ccccc3)n2)c1 [Compound I-5, N-(3-(5-methyl-4-(phenylamino)pyrimidin-2-ylamino)phenyl) acrylamide] | < 10 | – | – | – |
| C=CC(=O)Nc1ccc(C)c(Nc2ncc(C)c(Nc3cccc(C)c3)n2)c1 [Compound I-8, N-(4-methyl-3-(5-methyl-4-(m-tolylamino)pyrimidin-2-ylamino)phenyl)acrylamide] | < 10 | – | – | – |
| C=CC(=O)Nc1cccc(Nc2ncc(C)c(Nc3cccc(Br)c3)n2)c1 [Compound I-9, N-(3-(4-(3-bromophenylamino)-5-methylpyrimidin-2-ylamino)phenyl) acrylamide] | < 10 | – | – | – |
| C=CC(=O)N1CCCC(Nc2nc(Nc3ccccc3)ncc2C)C1 (stereo not drawn) [Compound I-27] | 10 to 100 | 1 to 10 | > 10 | – |
| C=CC(=O)Nc1cccc(Nc2nc(Nc3cccc(S(N)(=O)=O)c3)ncc2C)c1 [Compound I-33, N-(3-(5-methyl-2-(3-sulfamoylphenylamino)pyrimidin-4-ylamino)phenyl)acrylamide] | < 10 | – | – | – |
| C=CC(=O)Nc1cccc(N(C)c2nc(Nc3ccccc3)ncc2C)c1 [Compound I-34, N-(3-(methyl(5-methyl-2-(phenylamino)pyrimidin-4-yl)amino)phenyl)acrylamide] | 10 to 100 | – | – | – |
| C=CC(=O)Nc1cccc(Nc2nc(Nc3cccc(OCCCNC(=O)OC(C)(C)C)c3)ncc2C)c1 [Compound I-45, tert-butyl 3-(3-(4-(3-acrylamidophenylamino)-5-methylpyrimidin-2-ylamino)phenoxy)propylcarbamate] | < 10 | – | – | – |
| C=CC(=O)Nc1ccc(C)c(Nc2nccc(-c3cccnc3)n2)c1 [Compound I-56, N-(4-methyl-3-(4-(pyridin-3-yl)pyrimidin-2-ylamino)phenyl)acrylamide] | 10 to 100 | – | – | – |
| C=CC(=O)Nc1cccc(Oc2nc(Nc3ccc(OC)nc3)ncc2C(=O)Nc2ccccc2)c1 [Compound I-159, 4-(3-acrylamidophenoxy)-2-(6-methoxypyridin-3-ylamino)-pyrimidine-5-carboxylic acid phenylamide] | – | 1 to 10 | – | – |
| C=CC(=O)Nc1cccc(Nc2nc(Nc3cccc(S(N)(=O)=O)c3)ncc2F)c1 [Compound I-160, N-(3-(5-fluoro-2-(3-sulfamoylphenylamino)pyrimidin-4-ylamino)phenyl)acrylamide] | – | 1 to 10 | 1 to 10 | 1 to 10 |
| C=CC(=O)N1Cc2ccc(Nc3nc(Nc4ccc(OC)nc4)ncc3F)cc2C1 [Compound I-165, 1-(5-(5-fluoro-2-(6-methoxypyridin-3-ylamino)pyrimidin-4-ylamino)isoindolin-2-yl)prop-2-en-1-one] | – | 1 to 10 | 1 to 10 | 1 to 10 |
| C=CC(=O)N1CCc2ccc(Nc3nc(Nc4ccc(OC)nc4)ncc3F)cc21 [Compound I-166, 1-(6-(5-fluoro-2-(6-methoxypyridin-3-ylamino)pyrimidin-4-ylamino)indolin-1-yl)prop-2-en-1-one] | – | 1 to 10 | 1 to 10 | 1 to 10 |
| C=CC(=O)Nc1cccc(Nc2nc(Nc3ccc(OC)nc3)ncc2C2CC2)c1 [Compound I-167, N-(3-(5-cyclopropyl-2-(6-methoxypyridin-3-ylamino)pyrimidin-4-ylamino)phenyl)acrylamide] | – | 1 to 10 | – | – |
| C=CC(=O)N1CCOc2ccc(Nc3nc(Nc4ccc(N5CCOCC5)nc4)ncc3C(C)=O)cc21 [Compound I-168, 1-{6-[5-Acetyl-2-(6-morpholin-4-yl-pyridin-3-ylamino)-pyrimidin-4-ylamino]-2,3-dihydro-benzo[1,4]oxazin-4-yl}-propenone] | – | 1 to 10 | – | – |
| C=CC(=O)N1CCOc2ccc(Nc3nc(Nc4ccc(N5CCOCC5)cc4)ncc3C(C)=O)cc21 [Compound I-169, 1-{6-[5-Acetyl-2-(4-morpholin-4-yl-phenylamino)-pyrimidin-4-ylamino]-2,3-dihydro-benzo[1,4]oxazin-4-yl}-propenone] | – | 1 to 10 | – | – |

Now from value to molecule:

| IC50 (JAK3) [nM] | EC50 [1, 2] [µM] | EC50 [1, 3] [µM] | EC50 [1, 4] [µM] | Structure (SMILES) |
| --- | --- | --- | --- | --- |
| – | 1 to 10 | – | – | C=CC(=O)Nc1cccc(N(C(=O)C=C)c2nc(Nc3ccc(OC)nc3)ncc2C#N)c1 [Compound I-171, N-(3-acrylamidophenyl)-N-(5-cyano-2-(6-methoxypyridin-3-ylamino)pyrimidin-4-yl)acrylamide] |
| – | 1 to 10 | – | – | C=CC(=O)Nc1cccc(Nc2nc(Nc3ccc(OC(C)C)nc3)ncc2F)c1 [Compound I-172, N-(3-(5-fluoro-2-(6-isopropoxypyridin-3-ylamino)pyrimidin-4-ylamino)phenyl)acrylamide] |
| – | 1 to 10 | – | – | C=CC(=O)Nc1cccc(Nc2nc(Nc3ccc(OC)nc3)ncc2C#N)c1 [Compound I-173, N-(3-(5-cyano-2-(6-methoxypyridin-3-ylamino)pyrimidin-4-ylamino)phenyl)acrylamide] |
| – | 1 to 10 | – | – | C=CC(=O)Nc1cccc(Nc2nc(Nc3ccc4c(c3)NCCO4)ncc2F)c1 [Compound I-174] |
| – | 1 to 10 | – | 1 to 10 | C=CC(=O)Nc1cccc(Oc2nc(Nc3ccc(OC)nc3)ncc2C)c1 [Compound I-186, N-(3-(2-(6-methoxypyridin-3-ylamino)-5-methylpyrimidin-4-yloxy)phenyl)acrylamide] |
| – | 1 to 10 | – | – | C=CC(=O)Nc1cccc(Oc2nc(Nc3ccc(OC)nc3)ncc2C(C)=O)c1 [Compound I-188, N-{3-[5-Acetyl-2-(6-methoxy-pyridin-3-ylamino)-pyrimidin-4-yloxy]-phenyl}-acrylamide] |
| – | > 10 | > 10 | 1 to 10 | C=CC(=O)Nc1cccc(Nc2nc(Nc3ccc(OC)nc3)ncc2C(C)=O)c1 [Compound I-189, N-{3-[5-Acetyl-2-(6-methoxy-pyridin-3-ylamino)-pyrimidin-4-ylamino]-phenyl}-acrylamide] |
| – | 1 to 10 | > 10 | – | C=CC(=O)Nc1cccc(Nc2nc(Nc3ccc(OC)nc3)ncc2OC)c1 [Compound I-192, N-(3-(5-methoxy-2-(6-methoxypyridin-3-ylamino)pyrimidin-4-ylamino)phenyl)acrylamide] |
| – | 1 to 10 | 1 to 10 | 1 to 10 | C=CC(=O)N1CCOc2ccc(Nc3nc(Nc4ccc(OC)nc4)ncc3F)cc21 [Compound I-194, 1-(6-(5-fluoro-2-(6-methoxypyridin-3-ylamino)pyrimidin-4-ylamino)-2H-benzo[b][1,4]oxazin-4(3H)-yl)prop-2-en-1-one] |
| – | 1 to 10 | 1 to 10 | – | C=CC(=O)Nc1cccc(Nc2nc(Nc3cccc(OCCCn4ccnc4)c3)ncc2F)c1 [Compound I-204, N-(3-(2-(3-(3-(1H-imidazol-1-yl)propoxy)phenylamino)-5-fluoropyrimidin-4-ylamino)phenyl)acrylamide] |
| – | 1 to 10 | 1 to 10 | – | C=CC(=O)Nc1cccc(Nc2nc(Nc3cccc(OCCCN4CCOCC4)c3)ncc2F)c1 [Compound I-208, N-(3-(5-fluoro-2-(3-(3-morpholinopropoxy)phenylamino)pyrimidin-4-ylamino)phenyl)acrylamide] |
| – | > 10 | 1 to 10 | – | C=CC(=O)Nc1cccc(Nc2nc(Nc3ccc(OC)nc3)ncc2C(N)=O)c1 [Compound I-209, 4-(3-acrylamidophenylamino)-2-(6-methoxypyridin-3-ylamino)pyrimidine-5-carboxamide] |
| – | 1 to 10 | 1 to 10 | – | C=CC(=O)Nc1cccc(Nc2nc(Nc3cccc(OC)c3)ncc2C(N)=O)c1 [Compound I-210, 4-(3-acrylamidophenylamino)-2-(3-methoxyphenylamino)pyrimidine-5-carboxamide] |
| – | > 10 | > 10 | – | C=CC(=O)Nc1cccc(Oc2nc(Nc3ccc(OC)nc3)ncc2F)c1 [Compound I-217] |
| 1000 to 10000 | – | – | – | C=CC(=O)Nc1cccc(Nc2nc(NC3CCCN(C(C)=O)C3)ncc2F)c1 (stereo not drawn) [Compound I-238, N-(3-(2-(1-acetylpiperidin-3-ylamino)-5-fluoropyrimidin-4-ylamino)phenyl)acrylamide] |
| 100 to 1000 | – | – | – | C=CC(=O)Nc1cccc(Nc2nc(NCc3ccc(OC)cc3)ncc2F)c1 [Compound I-241, N-(3-(5-fluoro-2-(4-methoxybenzylamino)pyrimidin-4-ylamino)phenyl)acrylamide] |
| 100 to 1000 | – | – | – | C/C=C/C(=O)OCc1cccc(Nc2nc(Nc3ccccc3)ncc2C)c1 [Compound I-246, (E)-3-(5-methyl-2-(phenylamino)pyrimidin-4-ylamino)benzyl but-2-enoate] |
| – | – | 1 to 10 | – | C=CC(=O)Nc1cccc(Nc2nc(Nc3cccc(OCCN(CC)CC)c3)ncc2F)c1 [Compound I-298] |
| > 10000 | – | – | – | COCCOc1ccc(Nc2ncc(F)c(Nc3cccc(C(=O)C=C(C)C)c3)n2)cc1F [Compound I-323, 1-(3-(5-fluoro-2-(3-fluoro-4-(2-methoxyethoxy)phenylamino)pyrimidin-4-ylamino)phenyl)-3-methylbut-2-en-1-one] |
